Laboratory results: patent US20210278408A1, “METHODS OF TREATMENT OF CANCER WITH SUBSTITUTED PYRROLE AND PYRAZOLE COMPOUNDS AND DIAGNOSIS OF CANCERS SUSCEPTIBLE TO TREATMENT WITH SUBSTITUTED PYRROLE AND PYRAZOLE COMPOUNDS” (Bantam Pharmaceutical, LLC, priority 2018, published 2021)
pIC50: −log10 of the molar value.

Test system: 406 cancer cell lines, 73 blood tumor cell lines and 333 solid tumor cell lines
Assay: OmniScreen drug efficacy on cancer cell lines, fitted area under curve (AUC) of dose-response
Type: cell-based
Parameters: AUCs: unit not given beside the values
Method: Predictive biomarkers for genes indicating responsiveness to a therapeutic compound can be determined using a cell-based screening technique, such as that offered under the name OmniScreen™ (Crown Biosciences).
In one experimental study, predictive biomarkers were determined for Compound A197 efficacy on 406 cancer cell lines, 73 blood tumor cell lines and 333 solid tumor cell lines. Genomic data for the cell lines was downloaded from the Cancer Cell Line Encyclopedia Project (CCLE) website. Driver mutations were predicted on the Cancer Genome Interpreter Database; only driver mutations were used in the mutation related analysis.
Dose-response curves were fitted by the 4-parameter model:
in which top and bottom are the two asymptotes of the sigmoidal curve, EC50 is the relative IC50, and concentration x is in log−10 scale. To accommodate experimental errors, Bottom was allowed to go down to −20%, and Top was allowed to go up to 120%. The fitting error of a model is measured by
σECS0 is the standard error of EC50. In general, such fitting error should be less than 40% for a model to be considered acceptable. The fitted area under curve (AUC) is calculated by
where a=log(3, 10) and b=log(30000,10).

Structure (SMILES): Cc1nn(-c2nc(-c3ccc(C(F)(F)F)cc3)c(SC(C)C)s2)c(C(=O)O)c1-c1cccc(F)c1 [Compound A197, 4-(3-fluorophenyl)-1-(5-(isopropylthio)-4-(4-(trifluoromethyl)phenyl)thiazol-2-yl)-3-methyl-1H-pyrazole-5-carboxylic acid]
- AUCs (KHOS/NP, Bone): 3.37
- AUCs (KP4, Pancreas): 2.84
- pIC50 (KP4, Pancreas): 6.28
- AUCs (KU812, Blood): 3.91
- AUCs (KYSE-410, Esophagus): 3.51
- AUCs (L-82, Blood): 2.94
- AUCs (LN-229, Brain&Nerves): 3.59
- AUCs (LNCaP clone FGC, Prostate): 2.48
- AUCs (LS123, Colorectum): 4
- AUCs (LS1034, Colorectum): 3.29
- AUCs (MCF7, Breast): 3.76
- AUCs (MDA-MB-415, Breast): 3.49
- AUCs (MDA-MB-436, Breast): 3.33
- AUCs (MDA-MB-453, Breast): 3.26
- AUCs (ME-180, Uterus): 2.65
- AUCs (MES-SA, Uterus): 2.67
- AUCs (MES-SA/DX5, Uterus): 2.17
- AUCs (MFE-296, Uterus): 3.24
- AUCs (MIA PaCa-2, Pancreas): 3.15
- AUCs (MKN1, Stomach/Gastric): 3.21
- AUCs (MKN45, Stomach/Gastric): 3.54
- AUCs (MKN74, Stomach/Gastric): 2.89
- AUCs (MM.1S, Blood): 3.46
- AUCs (MS751, Uterus/Cervix): 3.52
- AUCs (NCI-H69, Lung): 3.75
- AUCs (NCI-H146, Lung): 3.86
- AUCs (NCI-H187, Lung): 2.89
- AUCs (NCI-H209, Lung): 3.47
- AUCs (NCI-H226, Lung): 2.98
- AUCs (NCI-H292, Lung): 3.17
- AUCs (NCI-H441, Lung): 3.85
- AUCs (NCI-H446, Lung): 3.83
- AUCs (NCI-H460, Lung): 3.13
- AUCs (NCI-H522, Lung): 3.12
- AUCs (NCI-H526, Lung): 3.6
- AUCs (NCI-H596, Lung): 3.81
- AUCs (NCI-H661, Lung): 3.43
- AUCs (NCI-H727, Lung): 3.53
- AUCs (NCI-H747, Large intestine/Colorectum): 3.19
- AUCs (NCI-H929, Blood): 3.32
- AUCs (NCI-H1048, Lung): 3.35
- AUCs (NCI-H1563, Lung): 3.71
- AUCs (NCI-H1581, Lung): 3.1
- AUCs (NCI-H1648, Lung): 3.56
- AUCs (NCI-H1650, Lung): 4.13
- AUCs (NCI-H1666, Lung): 3.51
- AUCs (NCI-H1688, Lung): 3.57
- AUCs (NCI-H1781, Lung): 3.34
- AUCs (NCI-H1838, Lung): 3.62
- AUCs (NCI-H1915, Lung): 3.33
- AUCs (NCI-H1975, Lung): 3.6
- AUCs (NCI-H2009, Lung): 3.22
- AUCs (NCI-H2052, Lung): 3.92
- AUCs (NCI-H2087, Lung): 3.19
- AUCs (NCI-H2452, Lung): 3.72
- AUCs (NCI-N87, Stomach/Gastric): 3.09
- AUCs (NUGC-3, Stomach/Gastric): 3.64
- AUCs (NUGC-4, Stomach/Gastric): 3.11
- AUCs (OCI-AML3, Blood/Leukemia): 3.62
- pIC50 (OCUM1, OCUM-1, Stomach/Gastric): 4.17
- AUCs (OCUM-1, Stomach/Gastric): 3.57
- AUCs (OCUM-2D, Stomach/Gastric): 3.12
- pIC50 (OCUM-2D, Stomach/Gastric): 5.94
- AUCs (OCUM-2M, Stomach/Gastric): 2.88
- pIC50 (OCUM-2M, Stomach/Gastric): 6.07
- AUCs (OE19, Esophagus/gastric cardia): 3.44
- pIC50 (OSC19, OSC-19, Tongue): 4.46
- AUCs (OSC-19, Tongue): 3.85
- AUCs (OVCAR-3, Ovary): 3.29
- AUCs (OVCAR-8, Ovary): 3.05
- AUCs (PANC-1, Pancreas): 3.13
- AUCs (PC-3, Prostate): 3.82
- pIC50 (PL45, PL45, Pancreas): 6.00
- AUCs (PL45, Pancreas): 3.37
- AUCs (RL95-2, Uterus): 2.63
- AUCs (RPMI-2650, Nose): 3.04
- AUCs (SCC-4, Tongue): 3.69
- AUCs (SCC-9, Tongue): 3.31
- AUCs (SCC-15, Tongue): 3.56
- AUCs (SCC-25, Tongue): 3.29
- AUCs (SCH, Stomach/Gastric): 3.48
- AUCs (SF268, Brain&Nerves): 3.24
- AUCs (SF-126, Brain&Nerves): 3.39
- AUCs (SK-HEP-1, Liver): 3.05
- AUCs (SK-MEL-5, Skin): 4.12
- AUCs (SK-MEL-28, Skin): 4.18
- AUCs (SK-OV-3, Ovary): 3.53
- AUCs (SK-UT-1, Uterus): 3.67
- AUCs (SNU-1, Stomach/Gastric): 3.25
- AUCs (SNU-5, Stomach/Gastric): 3.11
- AUCs (SNU-81, Colorectum): 3.54
- pIC50 (SNU-216, SNU-216, Stomach/Gastric): 3.91
- AUCs (SNU-216, Stomach/Gastric): 3.7
- AUCs (SNU-354, Liver): 3.39
- AUCs (SNU-423, Liver): 3.2
- pIC50 (SNU-484, SNU-484, Stomach/Gastric): 4.13
- AUCs (SNU-484, Stomach/Gastric): 3.64
- pIC50 (SNU-601, SNU-601, Stomach/Gastric): 6.48
- AUCs (SNU-601, Stomach/Gastric): 2.89
- AUCs (SNU-620, Stomach/Gastric): 3.75
- AUCs (SNU-638, Stomach/Gastric): 3.32
- AUCs (SNU-668, Stomach/Gastric): 3.48
- AUCs (SNU-719, Stomach/Gastric): 3.58
- pIC50 (SNU-719, Stomach/Gastric): 2.88
- AUCs (SNU-C5, Large intestine/Colorectum): 3.5
- AUCs (SW48, Colorectum): 3.74
- AUCs (SW480, Colorectum): 3.62
- pIC50 (SW579, SW579, Thyroid): 4.30
- AUCs (SW579, Thyroid): 3.73
- AUCs (SW626, Ovary): 3.89
- AUCs (SW684, Soft tissue): 3.77
- AUCs (SW756, Ovary): 3.75
- AUCs (SW948, Colorectum): 3.37
- AUCs (SW982, Soft tissue): 3.99
- AUCs (SW1116, Colorectum): 3.82
- AUCs (SW1271, Lung): 3.9
- pIC50 (SW1271, SW1271, Lung): 3.30
- AUCs (SW1990, Pancreas): 3.12
- AUCs (T47D, Breast): 3.33
- AUCs (T84, Colorectum): 3.57
- AUCs (TE-1, Esophagus): 3.23
- AUCs (TF-1, Blood): 3.24
- AUCs (TJ905, Brain&Nerves): 3.68
- AUCs (TT, Thyroid): 3.19
- pIC50 (TT, Thyroid): 5.66
- AUCs (U266B1, Blood): 3.41
- AUCs (U-2 OS, Bone): 3.44
- AUCs (UACC-812, Breast): 3.52
- AUCs (UO.31, Kidney): 3.58
- AUCs (WM-266-4, Skin): 3.87
- AUCs (Y-79, Eye): 3.72
- AUCs (YCC-1, Stomach/Gastric): 3.54
- AUCs (YCC-2, Stomach/Gastric): 3.66
- AUCs (YCC-6, Stomach/Gastric): 2.95
- pIC50 (YCC-6, Stomach/Gastric): 5.20
- AUCs (YCC-10, Stomach/Gastric): 3.64
- pIC50 (YCC-10, Stomach/Gastric): 3.39
- AUCs (YCC-11, Stomach/Gastric): 3.34
- AUCs (ZR-75-30, Breast): 3.44
